Values quoted from earlier work in US20070196488A1, “Oral matrix formulations comprising licarbazepine” (priority 2004, published 2007).

Tested on: epilepsy
Conditions: racemate compared with both pure enantiomers

NC(=O)N1c2ccccc2CC(O)c2ccccc21 (racemic) [Licarbazepine, 10,11-dihydro-10-hydroxy-5H-dibenz[b,f]azepine-5-carboxamide]
efficacy against epilepsy: equal efficacy
